In BindingDB's records for doi:10.1021/acs.jmedchem.7b00306 (Bayer, 2017):
pIC50: −log10 of the molar value.

Target: T1, Bromodomain-containing protein 1 (Homo sapiens, UniProt O95696)
T1 sequence (O95696 whole entry): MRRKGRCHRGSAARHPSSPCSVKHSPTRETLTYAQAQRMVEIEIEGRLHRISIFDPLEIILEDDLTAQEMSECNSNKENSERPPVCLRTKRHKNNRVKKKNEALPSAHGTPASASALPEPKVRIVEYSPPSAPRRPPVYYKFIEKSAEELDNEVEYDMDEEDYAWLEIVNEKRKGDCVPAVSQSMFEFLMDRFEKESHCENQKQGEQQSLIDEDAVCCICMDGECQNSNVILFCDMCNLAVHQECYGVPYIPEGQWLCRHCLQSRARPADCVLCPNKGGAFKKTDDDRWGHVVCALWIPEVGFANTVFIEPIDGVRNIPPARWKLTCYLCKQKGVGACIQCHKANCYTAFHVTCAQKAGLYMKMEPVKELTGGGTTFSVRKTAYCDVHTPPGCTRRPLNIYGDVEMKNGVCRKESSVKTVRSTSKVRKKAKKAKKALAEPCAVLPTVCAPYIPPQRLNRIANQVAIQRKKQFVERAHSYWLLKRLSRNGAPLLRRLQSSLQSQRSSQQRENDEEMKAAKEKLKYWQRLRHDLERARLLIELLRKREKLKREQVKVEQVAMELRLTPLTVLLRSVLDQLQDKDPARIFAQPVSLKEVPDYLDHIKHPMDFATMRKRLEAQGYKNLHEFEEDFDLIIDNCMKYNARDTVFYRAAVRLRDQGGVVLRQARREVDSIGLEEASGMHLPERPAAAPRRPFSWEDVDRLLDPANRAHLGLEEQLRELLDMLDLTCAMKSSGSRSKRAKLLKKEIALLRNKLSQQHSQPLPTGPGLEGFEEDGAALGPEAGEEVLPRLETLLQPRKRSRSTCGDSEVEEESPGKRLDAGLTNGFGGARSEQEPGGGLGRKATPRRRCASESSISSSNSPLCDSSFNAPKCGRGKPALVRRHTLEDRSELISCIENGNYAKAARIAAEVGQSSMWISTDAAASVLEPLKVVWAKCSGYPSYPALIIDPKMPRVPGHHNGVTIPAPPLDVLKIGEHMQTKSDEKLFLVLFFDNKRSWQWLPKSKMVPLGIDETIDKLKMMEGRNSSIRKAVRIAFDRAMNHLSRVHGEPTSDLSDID
Experiment: Alphascreen assay. Binding to BRD1A (domain start/stop: E556-A688) by alphascreen assay

COc1cc2c(cc1NS(=O)(=O)c1ccc(Br)cc1C)n(C)c(=O)n2C [OF-1]
pIC50: 5.77
